From patent US11097009B2, “CTB-PI polyamide conjugate for activating expression of specific gene” (KYOTO UNIVERSITY, priority 2015, dated 2021)

Experiments:
[1] = test system: Human dermal fibroblasts (HDFs); assay: Microarray analysis of genome-wide gene expression; format: cell-based; details: 1 μM effector, 48 hours, vs 0.5% DMSO
[2] = test system: HDAC (nucleus extracts of HeLa cells); assay: HDAC inhibitory activity evaluation (Color de Lys Substrate Deacetylation); format: biochemical; details: 0.2 mM substrate, 37° C., 30 minutes, absorption at 405 nm
Description: Trichostatin A (TSA), SAHA, and CTB were evaluated for their inhibitory activity against Color de Lys™ Substrate Deacetylation using nucleus extracts of HeLa cells. The nucleus extracts of HeLa cells were incubated with 0.2 mM of a substrate at 37° C. After 30 minutes, the reaction was terminated. Then, absorption at 405 nm was measured using Color de Lys™ Developer and thereby evaluated as HDAC inhibitory activity. The strong HDAC inhibitor trichostatin A (TSA) was compared with SAHA and CTB in terms of HDAC inhibitory activity.

Question: For `O=C(CCCCCCC(=O)Nc1ccccc1)NO` [SAHA, suberoylanilide hydroxamic acid], which “gene groups whose expression is activated (microarray clustering analysis)” value [1] is on record?
Answer: activates the expression of cancer- and cardiovascular disease-related gene groups

Question: `CCOc1ccccc1C(=O)Nc1ccc(Cl)c(C(F)(F)F)c1` [CTB, N-(4-chloro-3-(trifluoromethyl)phenyl)-2-ethoxybenzamide] was tested. Which HDAC inhibitory activity [2] did it give?
Answer: lack HDAC inhibitory activity

Question: And the “gene groups whose expression is activated (microarray clustering analysis)” value [1]?
Answer: activates the expression of a connective tissue disorder-related gene group
